Results reported in patent publication US20140121373A1, “PROCESS FOR PREPARING STABLE POLYMORPHIC FORM OF ERLOTINIB HYDROCHLORIDE” (CADILA HEALTHCARE LIMITED, priority 2011, published 2014).

Experiment: Chemical stability study of the stable form of Erlotinib hydrochloride (description, HPLC impurities, moisture content, assay on storage)
Assay type: physicochemical
Conditions: for Imp-1 (%) (N-(3-Ethynylphenyl)-6-(2-chloroethoxy)-7-(2-methoxyethoxy)-quinazolin-4-amine hydrochloride) / Imp-2 (%) (N-(3-Ethynylphenyl)-7-(2-chloroethoxy)-6-(2-methoxyethoxy)-quinazolin-4-amine hydrochloride): limit 0.15 w/w; for m/c (%): limit 0.5 w/w; for Assay (%), OAB: limit 98.0-102 w/w; for Description: limit White to off white; for HPLC single maximum impurity content / HPLC total impurity content / water content: storage condition not stated
Protocol: (Refrigerator), 25° C.±2° C.[…], 30° C.±2° C./65%±5% RH (Real Time) and 40° C.±2° C./75%±5% RH of Erlotinib Hydrochloride
Differential Scanning Calorimetry (DSC): Melting points are determined by means of a DSC thermogram using a Pyris-1 make Perkin Elmer. DSC (Differential Scanning Calorimetry) is the technique of dynamic differential Calorimetry. Using this technique, the melting temperature can be measured by heating the sample until a thermal, i.e. an endothermic or exothermic, reaction is detected by means of ultrasensitive sensors. The DSC cell/sample chamber was purged with 100 ml/min of ultra-high purity nitrogen. The instrument was calibrated with high purity Indium. The sample was placed into an open aluminum DSC pan and measured against an empty reference pan. About 2 mg of sample being placed into the bottom of the pan and lightly tapped down to ensure good contact with the pan. The instrument was programmed to heat at a heating rate of 10° C./min in the temperature range between 50° C. and 300° C. • Microscope: A Lieca Microscope with Linkam Hot stage microscopy (TMS-94) system with polarized light, CCD camera and Linksys 32 data software. • HPLC: High Performance Liquid Chromatography Separation Module with PDA detector, Make Waters, Model No 2695. • KF: Moisture content was analyzed by using Karl Fisher Autotitrator 795 KFT Titrino make Metrohm.

[1] = 5° C. ± 3° C. (Refrigerator), Month 1
[2] = 5° C. ± 3° C. (Refrigerator), Month 2
[3] = 5° C. ± 3° C. (Refrigerator), Month 3
[4] = 5° C. ± 3° C. (Refrigerator), Month 6
[5] = 25° C. ± 2° C./60% ± 5% RH, Month 1
[6] = 25° C. ± 2° C./60% ± 5% RH, Month 2
[7] = 25° C. ± 2° C./60% ± 5% RH, Month 3
[8] = 25° C. ± 2° C./60% ± 5% RH, Month 6
[9] = 30° C. ± 2° C./65% ± 5% RH (Real Time), Month 1
[10] = 30° C. ± 2° C./65% ± 5% RH (Real Time), Month 2
[11] = 30° C. ± 2° C./65% ± 5% RH (Real Time), Month 3
[12] = 30° C. ± 2° C./65% ± 5% RH (Real Time), Month 6
[13] = 40° C. ± 2° C./75% ± 5% RH, Month 1
[14] = 40° C. ± 2° C./75% ± 5% RH, Month 2
[15] = 40° C. ± 2° C./75% ± 5% RH, Month 3
[16] = 40° C. ± 2° C./75% ± 5% RH, Month 6

C#Cc1cccc(Nc2ncnc3cc(OCCOC)c(OCCOC)cc23)c1.Cl [Erlotinib hydrochloride, 4-(3-Ethynylphenylamino)-6,7-bis(2-methoxyethoxy)-quinazoline]
0.13%: m/c (%) [6]
0.12%: m/c (%) [9]
≥ 6 months: period over which stable with all impurities in limit (5° C. to 40° C./75% RH storage conditions of the chemical stability table)
Complies: Description [1] | Description [2] | Description [3] | Description [4] | Description [5] | Description [6] | Description [7] | Description [8] | Description [9] | Description [10] | Description [11] | Description [12] | Description [13] | Description [14] | Description [15] | Description [16]
99.6%: Assay (%), OAB [2] | Assay (%), OAB [9]
99.9%: Assay (%), OAB [5] | Assay (%), OAB [8] | Assay (%), OAB [15]
0.05%: Imp-1 (%) (N-(3-Ethynylphenyl)-6-(2-chloroethoxy)-7-(2-methoxyethoxy)-quinazolin-4-amine hydrochloride) [1] | Imp-1 (%) (N-(3-Ethynylphenyl)-6-(2-chloroethoxy)-7-(2-methoxyethoxy)-quinazolin-4-amine hydrochloride) [2] | Imp-1 (%) (N-(3-Ethynylphenyl)-6-(2-chloroethoxy)-7-(2-methoxyethoxy)-quinazolin-4-amine hydrochloride) [3] | Imp-1 (%) (N-(3-Ethynylphenyl)-6-(2-chloroethoxy)-7-(2-methoxyethoxy)-quinazolin-4-amine hydrochloride) [5] | Imp-1 (%) (N-(3-Ethynylphenyl)-6-(2-chloroethoxy)-7-(2-methoxyethoxy)-quinazolin-4-amine hydrochloride) [6] | Imp-1 (%) (N-(3-Ethynylphenyl)-6-(2-chloroethoxy)-7-(2-methoxyethoxy)-quinazolin-4-amine hydrochloride) [7] | Imp-1 (%) (N-(3-Ethynylphenyl)-6-(2-chloroethoxy)-7-(2-methoxyethoxy)-quinazolin-4-amine hydrochloride) [8] | Imp-1 (%) (N-(3-Ethynylphenyl)-6-(2-chloroethoxy)-7-(2-methoxyethoxy)-quinazolin-4-amine hydrochloride) [10] | Imp-1 (%) (N-(3-Ethynylphenyl)-6-(2-chloroethoxy)-7-(2-methoxyethoxy)-quinazolin-4-amine hydrochloride) [11] | Imp-1 (%) (N-(3-Ethynylphenyl)-6-(2-chloroethoxy)-7-(2-methoxyethoxy)-quinazolin-4-amine hydrochloride) [14] | Imp-1 (%) (N-(3-Ethynylphenyl)-6-(2-chloroethoxy)-7-(2-methoxyethoxy)-quinazolin-4-amine hydrochloride) [15]
0.14%: m/c (%) [5] | m/c (%) [7] | m/c (%) [8] | m/c (%) [12]
0.08%: Imp-2 (%) (N-(3-Ethynylphenyl)-7-(2-chloroethoxy)-6-(2-methoxyethoxy)-quinazolin-4-amine hydrochloride) [2] | Imp-2 (%) (N-(3-Ethynylphenyl)-7-(2-chloroethoxy)-6-(2-methoxyethoxy)-quinazolin-4-amine hydrochloride) [3] | Imp-2 (%) (N-(3-Ethynylphenyl)-7-(2-chloroethoxy)-6-(2-methoxyethoxy)-quinazolin-4-amine hydrochloride) [4] | Imp-2 (%) (N-(3-Ethynylphenyl)-7-(2-chloroethoxy)-6-(2-methoxyethoxy)-quinazolin-4-amine hydrochloride) [5] | Imp-2 (%) (N-(3-Ethynylphenyl)-7-(2-chloroethoxy)-6-(2-methoxyethoxy)-quinazolin-4-amine hydrochloride) [6] | Imp-2 (%) (N-(3-Ethynylphenyl)-7-(2-chloroethoxy)-6-(2-methoxyethoxy)-quinazolin-4-amine hydrochloride) [7] | Imp-2 (%) (N-(3-Ethynylphenyl)-7-(2-chloroethoxy)-6-(2-methoxyethoxy)-quinazolin-4-amine hydrochloride) [8] | Imp-2 (%) (N-(3-Ethynylphenyl)-7-(2-chloroethoxy)-6-(2-methoxyethoxy)-quinazolin-4-amine hydrochloride) [9] | Imp-2 (%) (N-(3-Ethynylphenyl)-7-(2-chloroethoxy)-6-(2-methoxyethoxy)-quinazolin-4-amine hydrochloride) [10] | Imp-2 (%) (N-(3-Ethynylphenyl)-7-(2-chloroethoxy)-6-(2-methoxyethoxy)-quinazolin-4-amine hydrochloride) [11] | Imp-2 (%) (N-(3-Ethynylphenyl)-7-(2-chloroethoxy)-6-(2-methoxyethoxy)-quinazolin-4-amine hydrochloride) [12] | Imp-2 (%) (N-(3-Ethynylphenyl)-7-(2-chloroethoxy)-6-(2-methoxyethoxy)-quinazolin-4-amine hydrochloride) [13] | Imp-2 (%) (N-(3-Ethynylphenyl)-7-(2-chloroethoxy)-6-(2-methoxyethoxy)-quinazolin-4-amine hydrochloride) [14] | Imp-2 (%) (N-(3-Ethynylphenyl)-7-(2-chloroethoxy)-6-(2-methoxyethoxy)-quinazolin-4-amine hydrochloride) [15] | Imp-2 (%) (N-(3-Ethynylphenyl)-7-(2-chloroethoxy)-6-(2-methoxyethoxy)-quinazolin-4-amine hydrochloride) [16]
0.07%: Imp-2 (%) (N-(3-Ethynylphenyl)-7-(2-chloroethoxy)-6-(2-methoxyethoxy)-quinazolin-4-amine hydrochloride) [1]
0.14 % w/w: Total Imp [4] | Total Imp [9] | Total Imp [12] | Total Imp [13] | Total Imp [16] | water content (Initial) | water content (after 3 months) | water content (after 6 months)
0.13 % w/w: Total Imp [2] | Total Imp [3] | Total Imp [5] | Total Imp [6] | Total Imp [7] | Total Imp [8] | Total Imp [10] | Total Imp [11] | Total Imp [14] | Total Imp [15] | HPLC total impurity content (Initial) | HPLC total impurity content (after 3 months) | HPLC total impurity content (after 6 months)
0.17%: m/c (%) [16]
0.16%: m/c (%) [1] | m/c (%) [14] | m/c (%) [15]
0.06%: Imp-1 (%) (N-(3-Ethynylphenyl)-6-(2-chloroethoxy)-7-(2-methoxyethoxy)-quinazolin-4-amine hydrochloride) [4] | Imp-1 (%) (N-(3-Ethynylphenyl)-6-(2-chloroethoxy)-7-(2-methoxyethoxy)-quinazolin-4-amine hydrochloride) [9] | Imp-1 (%) (N-(3-Ethynylphenyl)-6-(2-chloroethoxy)-7-(2-methoxyethoxy)-quinazolin-4-amine hydrochloride) [12] | Imp-1 (%) (N-(3-Ethynylphenyl)-6-(2-chloroethoxy)-7-(2-methoxyethoxy)-quinazolin-4-amine hydrochloride) [13] | Imp-1 (%) (N-(3-Ethynylphenyl)-6-(2-chloroethoxy)-7-(2-methoxyethoxy)-quinazolin-4-amine hydrochloride) [16]
99.5%: Assay (%), OAB [1] | Assay (%), OAB [3] | Assay (%), OAB [14]
0.15%: m/c (%) [2] | m/c (%) [3] | m/c (%) [4] | m/c (%) [10] | m/c (%) [11] | m/c (%) [13]
99.2%: Assay (%), OAB [6]
99.3%: Assay (%), OAB [7] | Assay (%), OAB [13]
0.12 % w/w: Total Imp [1]
99.8%: Assay (%), OAB [4] | Assay (%), OAB [12]
99.4%: Assay (%), OAB [10] | Assay (%), OAB [11] | Assay (%), OAB [16]
0.08 % w/w: HPLC single maximum impurity content (Initial) | HPLC single maximum impurity content (after 3 months) | HPLC single maximum impurity content (after 6 months)
